# Legend:
# Type in all cases: cell-based
# [1] = system: HIV-1 reverse transcriptase Y181C + A98G (Y181C-A98G-RTV); assay: Phenotypic susceptibility assay, site directed mutant Y181C-A98G-RTV; settings: >1 loss of susceptibility
# Procedure: (§1) Resistance tests were carried out with resistance test vectors using two host cell types. Resistance test vector viral particles were produced by a first host cell (the resistance test vector host cell) that was prepared by transfecting a packaging host cell with the resistance test vector and the packaging expression vector. The resistance test vector viral particles were then used to infect a second host cell (the target host cell) in which the expression of the indicator gene is measured.
# (§2) The resistance test vectors containing a functional luciferase gene cassette were constructed and host cells were transfected with the resistance test vector DNA. The resistant test vectors contained patient-derived reverse transcriptase and protease sequences that were either susceptible or resistant to the antiretroviral agents, such as nucleoside reverse transcriptase inhibitors, non-nucleoside reverse transcriptase inhibitors and protease inhibitors. The resistance test vector viral particles produced by transfecting the resistance test vector DNA into host cells, either in the presence or absence of protease inhibitors, were used to infect target host cells grown either in the absence of NRTI or NNRTI or in the presence of increasing concentrations of the drug. […] The IC50 values were determined by plotting percent drug inhibition vs. log10 drug concentration.
# (§3) Host cells were seeded in 10-cm-diameter dishes and were transfected several days after plating with resistance test vector plasmid DNA and the envelope expression vector. […] HIV capsid protein (p24) levels in the harvested cell culture media were determined by an EIA method as described by the manufacturer (SIAC; Frederick, Md.). […] The inhibitory effect of the drug was determined using the following equation: % luciferase inhibition=1-(RLUluc[drug]÷RLUluc)×100 where RLUluc [drug] is the relative light unit of luciferase activity in infected cells in the presence of drug and RLUluc is the Relative Light Unit of luciferase activity in infected cells in the absence of drug. […]
# [2] = system: HIV-1 reverse transcriptase K101E + G190S (K101E-G190S-RTV); assay: Phenotypic susceptibility assay, site directed mutant K101E-G190S-RTV
# Procedure: as §1
# The resistance test vectors containing a functional luciferase gene cassette were constructed and host cells were transfected with the resistance test vector DNA. The resistant test vectors contained patient-derived reverse transcriptase and protease sequences that were either susceptible or resistant to the antiretroviral agents, such as nucleoside reverse transcriptase inhibitors, non-nucleoside reverse transcriptase inhibitors and protease inhibitors. The resistance test vector viral particles produced by transfecting the resistance test vector DNA into host cells, either in the presence or absence of protease inhibitors, were used to infect target host cells grown either in the absence of NRTI or NNRTI or in the presence of increasing concentrations of the drug. The amount of luciferase activity produced in infected target host cells in the presence of drug was compared to the amount of luciferase produced in infected target host cells in the absence of drug. Drug resistance was measured as the amount of drug required to inhibit by 50% the luciferase activity detected in the absence of drug (inhibitory concentration 50%, IC50). The IC50 values were determined by plotting percent drug inhibition vs. log10 drug concentration.
# Host cells were seeded in 10-cm-diameter dishes and were transfected several days after plating with resistance test vector plasmid DNA and the envelope expression vector. Transfections were performed using a calcium-phosphate precipitation procedure. The cell culture media containing the DNA precipitate was replaced with fresh medium, from one to 24 hours, after transfection. Cell culture media containing resistance test vector viral particles was harvested one to four days after transfection and was passed through a […] filter before being stored at −80° C. HIV capsid protein (p24) levels in the harvested cell culture media were determined by an EIA method as described by the manufacturer (SIAC; Frederick, Md.). Before infection, target cells (293 and 293/T) were plated in cell culture media. Control infections were performed using cell culture media from mock transfections (no DNA) or transfections containing the resistance test vector plasmid DNA without the envelope expression plasmid. One to three or more days after infection the media was removed and cell lysis buffer (Promega) was added to each well. […] The inhibitory effect of the drug was determined using the following equation: % luciferase inhibition=1-(RLUluc[drug]÷RLUluc)×100 where RLUluc [drug] is the relative light unit of luciferase activity in infected cells in the presence of drug and RLUluc is the Relative Light Unit of luciferase activity in infected cells in the absence of drug. IC50 values were obtained from the sigmoidal curves that were generated from the data by plotting the percent inhibition of luciferase activity vs. the log10 drug concentration.
# Mutations may be incorporated alone and/or in combination with other known drug resistance mutations that are thought to modulate the susceptibility of HIV to a certain drug or class of drugs. Mutations are introduced into the resistance test vector through any of the widely known methods for site-directed mutagenesis. In one embodiment of this invention the mega-primer PCR method for site-directed mutagenesis is used.
# [3] = system: HIV-1 reverse transcriptase V108I (V108I-RTV); assay: Phenotypic susceptibility assay, site directed mutant V108I-RTV; settings: >1 loss of susceptibility
# Procedure: as §1, §2, §3
# [4] = system: HIV-1 reverse transcriptase V106A (V106A-RTV); assay: Phenotypic susceptibility assay, site directed mutant V106A-RTV; settings: >1 loss of susceptibility
# Procedure: as §1, §2, §3
# [5] = system: HIV-1 reverse transcriptase F227L (F227L-RTV); assay: Phenotypic susceptibility assay, site directed mutant F227L-RTV; settings: >1 loss, <1 increased susceptibility
# Procedure: as §1, §2, §3
# [6] = system: HIV-1 reverse transcriptase V106A + V189L (V106A-V189L-RTV); assay: Phenotypic susceptibility assay, site directed mutant V106A-V189L-RTV; settings: >1 loss of susceptibility
# Procedure: as §1, §2, §3
# [7] = system: HIV-1 reverse transcriptase V106A + F227L (V106A-F227-RTV); assay: Phenotypic susceptibility assay, site directed mutant V106A-F227-RTV; settings: >1 loss of susceptibility
# Procedure: as §1, §2, §3
# [8] = system: HIV-1 reverse transcriptase V106A + Y181C + F227L (V106A-Y181C-F227L-RTV); assay: Phenotypic susceptibility assay, site directed mutant V106A-Y181C-F227L-RTV; settings: >1 loss of susceptibility
# Procedure: as §1, §2, §3
# [9] = system: HIV-1 reverse transcriptase L100I (L100I-RTV); assay: Phenotypic susceptibility assay, site directed mutant L100I-RTV; settings: >1 loss of susceptibility
# Procedure: as §1, §2, §3
structure (smiles),measurement,setting,value
CC(C)Nc1cccnc1N1CCN(C(=O)c2cc3cc(NS(C)(=O)=O)ccc3[nH]2)CC1 [delavirdine],fold change in susceptibility compared to wild type control RTV,[1],240 fold
same,fold change in susceptibility compared to wild type control RTV,[2]; >1 loss of susceptibility,1.4 fold
same,fold change in susceptibility compared to wild type control RTV,"[2]; >1 loss, <1 increased susceptibility",0.5 fold
same,fold change in susceptibility compared to wild type control RTV,[3],1.3 fold
same,fold change in susceptibility compared to wild type control RTV,[4],5 fold
same,fold change in susceptibility compared to wild type control RTV,[5],0.03 fold
same,fold change in susceptibility compared to wild type control RTV,[6],3 fold
same,fold change in susceptibility compared to wild type control RTV,[7],3 fold
same,fold change in susceptibility compared to wild type control RTV,[8],50 fold
same,fold change in susceptibility compared to wild type control RTV,[9],30 fold

# Reference: patent US20050130134A1, “Means and methods for monitoring non-nucleoside reverse transcriptase inhibitor antiretroviral therapy and guiding therapeutic decisions in the treatment HIV-AIDS” (ViroLogic, Inc., priority 2000, published 2005)
